# Measurements reported in patent US20260271931A1, “HERBICIDAL MIXTURES” (Bayer Aktiengesellschaft, priority 2023, published 2026).
# Columns and labels:
# Assay type in all cases: in vivo
# [1] = system: Bidens pilosa (BIDPI); assay: Post-emergence action against weeds, greenhouse pot test, visual rating: Bidens pilosa
# [2] = system: Eleusine indica (ELEIN); assay: Post-emergence action against weeds, greenhouse pot test, visual rating: Eleusine indica
# Method: (§1) When the observed efficacies already exceed the formal sum total of the values of the tests with individual applications, they also exceed the expected value according to Colby, which is calculated using the formula below and is likewise regarded as an indication of synergism (cf. S. R. Colby; in Weeds 15 (1967) pp. 20 to 22):
# (§2) where: • A=efficacy of the active ingredient (A) in % at an application rate of a [g a.i./ha]; • B=efficacy of the active ingredient (B) in % at an application rate of b [g a.i./ha]; • E^C=expected value of the effect of the combination (A)+(B) in % at the combined application rate a+b [g a.i./ha].
# (§3) The observed values (E^A) from the experiments, given suitable low dosages, show an effect of the combinations exceeding the expected values according to Colby (E^C) (Δ).
# (§4) Seeds of mono- and dicotyledonous weeds were placed in sandy loam in pots, covered with soil and grown in a greenhouse under good growth conditions (temperature, air humidity, water supply). Two to three weeks after sowing, the test plants were treated at the two- to four-leaf stage with the compositions of the invention. The compositions of the invention, formulated as spray powders or as emulsion concentrates, were sprayed onto the green parts of the plant in various dosages with an application rate equivalent to […] of water. After the test plants had been kept in the greenhouse under optimum growth conditions for 3 weeks, the activity of the preparations was rated visually in comparison to untreated controls.
# (§5) 100% efficacy means complete control of the particular weed tested.
# (§6) 0% efficacy means zero control of the particular weed tested.
# (§7) Expected values according to Colby are reported under E.
# (§8) The exceedance of the expected value E is given as Δ (=synergistic effect).
# (§9) The rating period is reported in days after application (DAT).
# [3] = system: Centaurea cyanus (CENCY); assay: Post-emergence action against weeds, greenhouse pot test, visual rating: Centaurea cyanus; conditions: 240 h, read-out: Herbicidal effect [%] on CENCY 10 DAT
# [4] = system: Pharbitis purpurea (PHBPU); assay: Post-emergence action against weeds, greenhouse pot test, visual rating: Pharbitis purpurea; conditions: 10 DAT
# Method: as §1, §2, §3, §4, §5, §6, §7, §8, §9
# [5] = system: Avena fatua (AVEFA); assay: Post-emergence action against weeds, greenhouse pot test, visual rating: Avena fatua; conditions: 10 DAT
# [6] = system: Lolium rigidum (LOLRI); assay: Post-emergence action against weeds, greenhouse pot test, visual rating: Lolium rigidum; conditions: 21 DAT
# [7] = system: Kochia scoparia (KCHSC); assay: Post-emergence action against weeds, greenhouse pot test, visual rating: Kochia scoparia
# [8] = system: Centaurea cyanus (CENCY); assay: Post-emergence action against weeds, greenhouse pot test, visual rating: Centaurea cyanus
# Method: as §1, §2, §3, §4, §5, §6, §7, §8, §9
# [9] = system: Brachiaria platyfylla (BRAPP); assay: Post-emergence action against weeds, greenhouse pot test, visual rating: Brachiaria platyfylla; conditions: post-emergence, 504 h; 1.5 g a.i./ha; read-out: Herbicidal effect [%] on BRAPP 21 DAT
# Method: as §1, §2, §3, §4, §5, §6, §7, §8, §9
# [10] = system: Sorghum halepense (SORHA); assay: Post-emergence action against weeds, greenhouse pot test, visual rating: Sorghum halepense; conditions: 3 g a.i./ha, 21 DAT
# Method: as §1, §2, §3, §4, §5, §6, §7, §8, §9
# [11] = system: Echinochloa crus-galli (ECHCG); assay: Post-emergence action against weeds, greenhouse pot test, visual rating: Echinochloa crus-galli; conditions: 3 g a.i./ha
compound,measurement,setting,value
"N#Cc1cc(Br)c(O)c(Br)c1 [Bromoxynil, bromoxynil]",Herbicidal effect [%] on BIDPI 10 DAT,[1]; 80 g a.i./ha,50%
same,pest or weed control at 80 g/ha,"[2]; Eleusine indica, post-emergence, 240 h, 80 g a.i./ha, read-out: Herbicidal effect [%] on ELEIN 10 DAT",0%
same,pest or weed control at 80 g/ha,[3]; 80 g a.i./ha,30%
same,Herbicidal effect [%] on PHBPU 10 DAT,[4]; 80 g a.i./ha,50%
same,pest or weed control at 80 g/ha,"[5]; Avena fatua, 240 h, 80 g a.i./ha, read-out: Herbicidal effect [%] on AVEFA 10 DAT",0%
"CS(=O)(=O)NC(=O)c1cc(Oc2ccc(C(F)(F)F)cc2Cl)ccc1[N+](=O)[O-] [Fomesafen, fomesafen]",pest or weed control at […],"[6]; Lolium rigidum, 504 h, 1.5 g a.i./ha, read-out: Herbicidal effect [%] on LOLRI 21 DAT",0%
same,Herbicidal effect [%] on KCHSC 10 DAT,[7]; 1.5 g a.i./ha,10%
same,pest or weed control at […],"[7]; Bassia scoparia, post-emergence, 504 h, 1.5 g a.i./ha, read-out: Herbicidal effect [%] on KCHSC 21 DAT",0%
same,Herbicidal effect [%] on BIDPI 10 DAT,[1]; 1.5 g a.i./ha,30%
same,Herbicidal effect [%] on BIDPI 21 DAT,[1]; 1.5 g a.i./ha,20%
same,pest or weed control at […],"[2]; Eleusine indica, post-emergence, 504 h, 1.5 g a.i./ha, read-out: Herbicidal effect [%] on ELEIN 21 DAT",0%
same,Herbicidal effect [%] on CENCY 21 DAT,[8]; 1.5 g a.i./ha,30%
same,pest or weed control at […],[9],0%
same,pest or weed control at […],[3]; 1.5 g a.i./ha,20%
"Cc1ccc2c(c1)[C@H](Nc1nc(N)nc(C(C)F)n1)[C@@H](C)C2 (stereo partly shown) [Indaziflam, indaziflam]",Herbicidal effect [%] on LOLRI 21 DAT,[6]; 3 g a.i./ha,0%
same,Herbicidal effect [%] on KCHSC 10 DAT,[7]; 3 g a.i./ha,10%
same,Herbicidal effect [%] on KCHSC 21 DAT,[7]; 3 g a.i./ha,20%
same,Herbicidal effect [%] on BIDPI 21 DAT,[1]; 3 g a.i./ha,30%
same,Herbicidal effect [%] on ELEIN 21 DAT,[2]; 3 g a.i./ha,10%
same,Herbicidal effect [%] on CENCY 10 DAT,[8]; 3 g a.i./ha,20%
same,Herbicidal effect [%] on CENCY 21 DAT,[8]; 3 g a.i./ha,10%
same,Herbicidal effect [%] on SORHA 21 DAT,[10],10%
same,Herbicidal effect [%] on AVEFA 10 DAT,[5]; 3 g a.i./ha,0%
same,Herbicidal effect [%] on ECHCG 10 DAT,[11],0%
"CSc1nnc(C(C)(C)C)c(=O)n1N [Metribuzin, metribuzin]",pest or weed control at 15 g/ha,"[6]; Lolium rigidum, 504 h, 15 g a.i./ha, read-out: Herbicidal effect [%] on LOLRI 21 DAT",0%
same,pest or weed control at 15 g/ha,"[2]; Eleusine indica, post-emergence, 504 h, 15 g a.i./ha, read-out: Herbicidal effect [%] on ELEIN 21 DAT",10%
same,pest or weed control at 15 g/ha,[3]; 15 g a.i./ha,0%
same,Herbicidal effect [%] on PHBPU 10 DAT,[4]; 15 g a.i./ha,0%
